Experimental data taken from patent publication US11753433B2, “Methods of synthesizing substituted purine compounds” (Epizyme, Inc., priority 2013, dated 2023).

Assays:
Format in all cases: physicochemical
Solution photostability = test: Solution photostability
Protocol: Solution Photostability: Weighed ˜1 mg of Form B and dissolved in 3 solutions at different pHs (0.01 N HCl, 0.01 N NaOH and water). Methanol was added as a co-solvent to dissolve Form B in solutions (i.e., 10% (v/v) methanol in 0.01 N HCl, 20% (v/v) in water and 30% (v/v) in 0.01 N NaOH), the final concentration was 0.1 mg/mL. For each solution, 1 sample and 1 control covered in foil were put into the photo chamber for Vis study (2 vials total for each solution). Measure the concentration and monitor the degradation.

[1] = Solid-state photostability
Protocol: The solid-state photostability of EP-1 trihydrate (x is 3) was assessed upon exposure to UV/Vis light according to ICH guidelines. Loss of claim %, loss of area %, and degradates were evaluated versus dark control samples.
Solid-State Photostability: Weighed ˜5 mg Form B into glass vials with 2 vials covered with foil as the controls. Put these 2 samples with their controls into chamber and expose them to Vis (10 Kilo lux) for 120 hrs followed by UV (10 W/m^2) for 20 hrs (per ICH guidelines). At the end of Vis, take 1 sample and 1 control out for analysis and the others were taken out after both Vis and UV exposure.

[2] = Equilibrium solubility in aqueous media; conditions: for solubility at 24 h: 25 °C, thermodynamic from solid; for Remaining Solid: XRPD
Protocol: Approximately 10 mg of Form B was weighed into a 1-ml glass vial followed by addition of 0.5 ml relevant media. Each sample was continuously stirred using a magnetic stir bar at 25° C. for 24 h. The suspension was then filtered using a nylon membrane with a pore diameter of 0.22 μm. The filtrates were diluted for HPLC analysis and final pH was measured. The solid residue of each sample was collected for XRPD analysis.
The solubilities of Form B in water and five different pH values at 25° C. were determined by HPLC after 24 h equilibration. Solubility data for Form B was obtained across the physiological pH by using buffer solutions from pH 2 to pH 10.
Preparation of pH Buffers • pH 2: 0.01N HCl solution. Dilute 1 ml of 1 N HCl with H2O up to a total volume of 100 ml. Measure the pH and precisely adjust to pH=2.00 using a few microliters of 1N HCl or 1N NaOH. • pH 4: 50 mM Na citrate buffer. Prepare a 50 mM citric acid solution by diluting 10 ml of 1N citric acid with H2O up to a total volume of 200 ml. Slowly add solid NaOH under stirring to increase the pH to 3.8-4.0 and use a few microliters of 1N NaOH for final adjustment to pH 4.00. • pH 6: 50 mM Na citrate buffer. Use the same procedure as the pH 4 buffer and adjust to pH=6.00 • pH 8: 50 mM Na phosphate buffer. Prepare a 50 mM NaH2PO4 solution by dissolving 6.00 g NaH2PO4 in 1 L of H2O and a 50 mM Na2HPO4 solution by dissolving 7.10 g in 1 L of H2O. Mix 10 ml of the NaH2PO4 solution with 140 ml of the Na2HPO4 solution in a beaker. Adjust to pH 8.00 by addition of small amounts of 50 mM NaH2PO4 or Na2HPO4 solution. • pH 10: 50 mM Na carbonate buffer. Prepare a 50 mM carbonate solution by dissolving 840 mg of sodium bicarbonate (NaHCO3) in about 180 ml of H2O. Slowly adjust the pH to 10.0±0.1 by addition of 1N NaOH. Add water to reach the total volume of 200 ml and adjust to pH 10.00 with 1N NaOH.

[3] = Slurry experiments using Form A and Form B (relative stability)
Protocol: The relative stability between Form A and Form B was investigated by slurry experiments in ACN (containing less than 0.3 wt % water), ACN/H2O (v/v, 3; 1), and H2O at room temperature and 50° C. In general, about 10-30 mg Form A was added to a 5-ml glass vial with 0.5 ml corresponding solvents to get suspensions at room temperature and 50° C., respectively. Then 10-30 mg Form B was added to the suspensions which were kept stirring for 24 h. The water activity was calculated using the UNIFAC model.

[4] = 0.01N HCl Dark, Vis Stability (1.2 Mil lux-hours)
[5] = 0.01N HCl Dark, Vis-UV Stability (1.2 Mil lux-hours + 200 Watt-hours/m^2)
[6] = 0.01N HCl Light, Vis Stability (1.2 Mil lux-hours)
[7] = 0.01N HCl Light, Vis-UV Stability (1.2 Mil lux-hours + 200 Watt-hours/m^2)
[8] = 0.01N NaOH Dark, Vis Stability (1.2 Mil lux-hours)
[9] = 0.01N NaOH Dark, Vis-UV Stability (1.2 Mil lux-hours + 200 Watt-hours/m^2)
[10] = 0.01N NaOH Light, Vis Stability (1.2 Mil lux-hours), precipitation observed
[11] = 0.01N NaOH Light, Vis-UV Stability (1.2 Mil lux-hours + 200 Watt-hours/m^2), precipitation observed
[12] = H2O Dark, Vis Stability (1.2 Mil lux-hours)
[13] = H2O Dark, Vis-UV Stability (1.2 Mil lux-hours + 200 Watt-hours/m^2)
[14] = H2O Light, Vis Stability (1.2 Mil lux-hours)
[15] = H2O Light, Vis-UV Stability (1.2 Mil lux-hours + 200 Watt-hours/m^2)
[16] = Bulk control (covered with foil), Vis Stability (1.2 Mil lux-hours)
[17] = Bulk control (covered with foil), Vis-UV stability (1.2 Mil lux-hours + 200 Watt-hours/m^2)
[18] = Bulk, Vis Stability (1.2 Mil lux-hours)
[19] = Bulk, Vis-UV stability (1.2 Mil lux-hours + 200 Watt-hours/m^2)
[20] = 0.01N HCl, pH (initial) 2.0, RT, 24 h
[21] = 50 mM Na carbonate buffer, pH (initial) 10.0, RT, 24 h
[22] = 50 mM Na phosphate buffer, pH (initial) 8.0, RT, 24 h
[23] = 50 mM sodium citrate, pH (initial) 4.0, RT, 24 h
[24] = 50 mM sodium citrate, pH (initial) 6.0, RT, 24 h

Compound: CC(C)N(C[C@H]1O[C@@H](n2cnc3c(N)ncnc32)[C@H](O)[C@@H]1O)[C@H]1C[C@@H](CCc2nc3cc(C(C)(C)C)ccc3[nH]2)C1 [Form B, (2R,3R,4S,5R)-2-(6-amino-9H-purin-9-yl)-5-((((1r,3S)-3-(2-(5-(tert-butyl)-1H-benzo[d]imidazol-2-yl)ethyl)cyclobutyl)(isopropyl)amino)methyl)tetrahydrofuran-3,4-diol trihydrate]
- % area (Solution photostability; [4]): 99.4%
- % claim (Solution photostability; [4]): 100.0%
- Final pH (Solution photostability; [4]): 2.1
- % area (Solution photostability; [5]): 99.9%
- % claim (Solution photostability; [5]): 100.0%
- Final pH (Solution photostability; [5]): 2.1
- % area (Solution photostability; [6]): 98.5%
- % claim (Solution photostability; [6]): 98.8%
- Final pH (Solution photostability; [6]): 2.1
- % area (Solution photostability; [7]): 99.9%
- % claim (Solution photostability; [7]): 99.9%
- Final pH (Solution photostability; [7]): 2.1
- % area (Solution photostability; [8]): 99.7%
- % claim (Solution photostability; [8]): 100.0%
- Final pH (Solution photostability; [8]): 11.6
- % area (Solution photostability; [9]): 100.0%
- % claim (Solution photostability; [9]): 100.0%
- Final pH (Solution photostability; [9]): 11.7
- Final pH (Solution photostability; 0.01N NaOH Light, Vis Stability (1.2 Mil lux-hours)): 11.7
- % area (Solution photostability; [10]): 99.6%
- % claim (Solution photostability; [10]): 44.5%
- Final pH (Solution photostability; 0.01N NaOH Light, Vis-UV Stability (1.2 Mil lux-hours + 200 Watt-hours/m^2)): 11.7
- % area (Solution photostability; [11]): 99.3%
- % claim (Solution photostability; [11]): 66.3%
- % area (Solution photostability; [12]): 100.0%
- % claim (Solution photostability; [12]): 100.0%
- Final pH (Solution photostability; [12]): 7.7
- % area (Solution photostability; [13]): 100.0%
- % claim (Solution photostability; [13]): 100.0%
- Final pH (Solution photostability; [13]): 8.1
- % area (Solution photostability; [14]): 99.6%
- % claim (Solution photostability; [14]): 98.5%
- Final pH (Solution photostability; [14]): 7.3
- % area (Solution photostability; [15]): 99.3%
- % claim (Solution photostability; [15]): 94.7%
- Final pH (Solution photostability; [15]): 7.3
- observation in solution photostability study (Solution photostability; all solutions in 0.01N NaOH): Precipitation was observed
- solution photostability (in words) (Solution photostability; in water and 0.01N HCl solution, UV/Vis exposure): stable upon exposure to UV/Vis
- % area [1, 16]: 99.7%
- % claim [1, 16]: 100.0%
- % area [1, 17]: 99.8%
- % claim [1, 17]: 100.0%
- % area [1, 18]: 99.8%
- % claim [1, 18]: 101.1%
- % area [1, 19]: 99.8%
- % claim [1, 19]: 99.6%
- solid-state photostability (in words) ([1]; bulk, full ICH photostability exposure): stable upon exposure to full ICH photostability requirement
- solubility at 24 h ([2]; 0.01N HCl solution, pH 2, simulated gastric fluid, 0.01N HCl, pH (initial) 2.0, RT, 24 h): 3400 µg/mL
- pH (final) [2, 20]: 5.5
- Remaining Solid [2, 20]: Form B
- pH (final) [2, 21]: 10.0
- Remaining Solid [2, 21]: Form B
- Solubility ([2]; 50 mM Na carbonate buffer, pH (initial) 10.0, RT, 24 h, LOD 0.1 μg/ml): <LOD^
- pH (final) [2, 22]: 8.0
- Remaining Solid [2, 22]: Form B
- Solubility ([2]; 50 mM Na phosphate buffer, pH (initial) 8.0, RT, 24 h, LOD 0.1 μg/ml): <LOD^§
- solubility at 24 h ([2]; 50 mM sodium citrate buffer, pH 4, aqueous buffer, 50 mM sodium citrate, pH (initial) 4.0, RT, 24 h): 9800 µg/mL
- solubility at 24 h ([2]; 50 mM sodium citrate buffer, pH 6, aqueous buffer, 50 mM sodium citrate, pH (initial) 6.0, RT, 24 h): 80 µg/mL
- pH (final) [2, 23]: 5.4
- Remaining Solid [2, 23]: Form B
- Solubility ([2]; 50 mM sodium citrate, pH (initial) 4.0, RT, 24 h, trihydrate): 9700 µg/mL
- pH (final) [2, 24]: 6.0
- Remaining Solid [2, 24]: Form B
- pH (final) ([2]; Water (unbuffered), RT, 24 h): 5.6
- Remaining Solid ([2]; Water (unbuffered), RT, 24 h): Form B
- solubility at 24 h ([2]; unbuffered water, water, RT): 1.2 µg/mL
- solubility at 24 h ([2]; unbuffered water, water, Water (unbuffered), RT, 24 h): 1.2 µg/mL
- water activity at which Form B is thermodynamically more stable than Form A ([3]; 50° C.): ≥ 0.08
- water activity at which Form B is thermodynamically more stable than Form A ([3]; RT): ≥ 0.09
